US7381428B2, “Stabilized lanthanum carbonate compositions” (Shire International Licensing B.V., priority 2003, dated 2008)

Experiments:
Type in all cases: physicochemical
[1] = Decarboxylation of hydrated lanthanum carbonate at standard ICH stability conditions, lanthanum hydroxycarbonate content by XRPD; details: 25° C./60% RH, 30° C./60% RH and 40° C./75% RH, up to 2 years
Procedure: Unformulated hydrated lanthanum carbonate and formulated hydrated lanthanum carbonate tablets containing approximately 50% (by weight) dextrates were exposed to the standard ICH stability conditions of 25° C./60% RH, 30° C./60% RH and 40° C./75% RH for a period up to 2 years. Samples were removed periodically over this time and tested for their lanthanum hydroxycarbonate content using x-ray powder diffraction.

[2] = Thermal and moisture stress study of lanthanum carbonate/excipient mixtures, decarboxylation to lanthanum hydroxycarbonate (HC) monitored by XRPD
Procedure: Excipient compatibility studies of hydrated lanthanum carbonate having a water content approximately equivalent to 4-5 moles of water and anhydrous lanthanum carbonate were performed to determine whether different classes of saccharide excipients would retard or prevent the appearance of decarboxylation products in thermally- and moisture-stressed solid lanthanum carbonate mixtures.
Conditions which would cause the formation of decarboxylation products in substantially pure hydrated lanthanum carbonate within one week were used. Mixtures of 1:1 or 96:4 (by weight) of hydrated lanthanum carbonate and a test excipient or 1:1 (by weight) anhydrous lanthanum carbonate and a test excipient were prepared and stressed, and samples were analyzed by XRPD (X-ray powder diffraction) as a function of exposure time.
Weighed samples of hydrated lanthanum carbonate/excipient (1:1 or 96:4 by weight) or anhydrous lanthanum carbonate/excipient (1:1 by weight) were sealed into scintillation vials and placed onto a Turbula mixer. Samples were mixed for ten minutes to ensure sample homogeneity.
Saturated salt solutions of Na2SO4.10H2O (˜95% RH (relative humidity)) or NaNO3 (65% RH) were prepared and placed into sealed chambers. The chambers were placed into a 60° C. oven overnight and the presence of solids was confirmed after 24 hours. These chambers were then subsequently used for the stressing studies of the various excipient/lanthanum carbonate mixtures. The lower humidity conditions were utilized for the D-sorbitol and dextrates excipients because they deliquesce under the more extreme conditions of 60° C./95% RH.
XRPD analyses were performed using a Shimadzu XRD-6000 X-ray powder diffractometer using Cu Kα radiation. […]
At the experimental onset, the hydrated lanthanum carbonate was stressed under two conditions, 60° C./95% RH and 60° C./65% RH, in order to establish a baseline for monitoring decarboxylation. Individual samples were pulled after 1, 2, 3, 4, and 7 days and immediately analyzed by XRPD. […]

[3] = Degradation to lanthanum hydroxycarbonate at room temperature / standard ambient conditions

Row | Compound | degradation (decarboxylation) to lanthanum hydroxycarbonate [1] | time after which decarboxylation product HC was initially seen (XRPD) ([2]; 60° C./65% RH) | time after which decarboxylation product HC was initially seen (XRPD) ([2]; 60° C./95% RH) | time within which degradation to lanthanum hydroxycarbonate occurs [3]
1 | hydrated lanthanum carbonate | significant degradation | single | one | 
2 | O=C([O-])[O-].O=C([O-])[O-].O=C([O-])[O-].[La+3].[La+3] [substantially pure lanthanum carbonate, La2(CO3)3.xH2O] |  |  | 1 days | 9-12 months
